Assay type in all cases: physicochemical
A short description of series [1]: UV-Vis absorption spectra in acetonitrile. The note with it: for λabs: Absorption maxima in acetonitrile. How it is done:
(§1) All starting materials and reagents were analytical grade, purchased from Aldrich and used without further purification. The organic solvents were dried over appropriate drying agents and distilled prior to use. UV-Vis absorption spectra were recorded on the Thermo Electron Spectrophotometer Corporation, model Nicolet Evolution 300, using acetonitrile (CH3CN) as solvent. Fluorescence spectra were recorded on a PerkinElmer Model LS 55 spectrophotometer. FTMS-ESI mass spectra were obtained on an Thermo Scientific Q Exactive Orbitrap Mass Spectrometer. Nuclear magnetic resonance (NMR) spectra were recorded at 400 MHz for ^1H NMR and at 100 MHz for ^13C NMR, on a Brucker Advance III spectrometer. For NMR spectra, deuterated chloroform (CDCl3) was used as solvent. The chemical shift (π) in ppm; coupling constants (J); relative intensity is indicated by the number of protons (H); multiplicities are indicated by singlet (s), doublet (d), double-doublet (dd), triplet (t), quadruple (q) and multiplet (m); coupling constants are given in Hertz (Hz).
as §1, with “400MHz” for “400 MHz”, “100MHz” for “at 100 MHz”, “^13C,” for “^13C NMR,”, “(CDCl3) or deuterated methanol (CD3OD)” for “(CDCl3)”, “(δ)” for “(π)”

A short description of series [2]: Fluorescence quantum yield in ethanol against 7-diethylamino-4-methylcoumarin as standard.
Series [3] in a line: Fluorescence emission spectra in acetonitrile. The following applies: Emission maxima in acetonitrile. The protocol:
as §1
as §1, with “400MHz” for “400 MHz”, “100MHz” for “at 100 MHz”, “^13C,” for “^13C NMR,”, “(CDCl3) or deuterated methanol (CD3OD)” for “(CDCl3)”, “(δ)” for “(π)”

[4] abbreviates: Molar extinction coefficient at longest wavelength transition.
[5] abbreviates: Fluorescence quantum yield in ethanol, standard 7-diethylamino-4-methylcoumarin (ΦF = 0.73 in ethanol).
[6] abbreviates: Molar extinction coefficient at longest wavelength transition (Table 5).

Values joined by “and” are separate entries in the source; they are usually repeats but may differ in a detail not shown here. Equal entries are not always repeated. Where two headings read alike, the source gives them in different places.

In series [1], `CCN(CC)c1ccc2c(c1)OC(=C(C#N)C#N)C=C2/C=C/c1ccc(OCCCCCC(=O)ON2C(=O)CCC2=O)cc1` [Compound 9, (E)-2,5-dioxopyrrolidin-1-yl 6-(4-(2-(2-(dicyanomethylene)-7-(diethylamino)-2Hchromen-4-yl)vinyl)phenoxy)hexanoate] returned a λabs of 523 nm. Besides, the ε in series [1] (setting [4]) amounted to 24000 cm^-1M^-1. Further, the ΦF in series [2] (setting [5]) turned out to be 0.29. Besides, the λem in series [3] was determined as 597 nm.

In series [1], `CCN(CC)c1ccc2c(/C=C/c3ccc(C(=O)OC)cc3)cc(=[N+]3CCCCC3)oc2c1.O=[N+]([O-])[O-]` [Compound 11, (E)-1-(7-(diethylamino)-4-(4-(methoxycarbonyl)styryl)-2H-chromen-2ylidene)piperidin-1-ium nitrate] came in with a λabs of 484 nm. Also, the ε in series [1] (setting [4]) is 18000 cm^-1M^-1; in series [1] (setting [6]) it was 18000 cm^-1m^-1. In series [2] (setting [5]), this compound came in with a ΦF of 0.08. In series [3], this compound came in with a λem of 609 nm.

The compound `CCN(CC)c1ccc2c(/C=C/c3ccc(OC)cc3)cc(=[N+]3CCCCC3)oc2c1.O=[N+]([O-])[O-]` [Compound 14, (E)-1-(7-(diethylamino)-4-(4-methoxystyryl)-2H-chromen-2-ylidene)piperidin-1-ium nitrate] had a λabs in series [1] of 410 nm. Also, the ε in series [1] (setting [6]) is given as 30000 cm^-1m^-1. In addition, the λem in series [3] is recorded as 578 nm.

In series [1], `CCN(CC)c1ccc2c(C)cc(=O)oc2c1` [Compound 1, 7-diethylamino-4-methylcoumarin, reference compound] yielded a λabs of 371 nm. The ε turned out to be 22910 cm^-1M^-1 in series [1] (setting [4]) and 22910 cm^-1m^-1 in series [1] (setting [6]). Moreover, in series [2] (setting [5]), the ΦF was 0.73. Moreover, the λem in series [3] was found to be 434 nm.

Consider `CCN(CC)c1ccc2c(c1)OC(=C(C#N)C#N)C=C2C` [Compound 3, 2-(7-(diethylamino)-4-methyl-2H-chromen-2-ylidene)malononitrile], for which the λabs in series [1] amounted to 477 nm. In series [1] (setting [4]), the ε is 38000 cm^-1M^-1. Besides, in series [1] (compared with its precursor (2)), the bathochromic shift result is given as “more than 100 nm”. Further, the ΦF in series [2] (setting [5]) came to 0.05. For the same compound, the λem in series [3] was found to be 519 nm.

`CCN(CC)c1ccc2c(c1)OC(=C(C#N)C#N)C=C2/C=C/c1ccc(OCCCCCC(=O)O)cc1` [Compound 8, (E)-6-(4-(2-(2-(dicyanomethylene)-7-(diethylamino)-2H-chromen-4yl)vinyl)phenoxy)hexanoic acid] came in with a λabs in series [1] of 519 nm. For the same compound, the ε in series [1] (setting [4]) was determined as 24000 cm^-1M^-1. Also, in series [2] (setting [5]), the ΦF came out at 0.28. The λem in series [3] came out at 596 nm.

As for `CCN(CC)c1ccc2c(c1)OC(=C(C#N)C#N)C=C2/C=C/c1ccccc1` [Compound 5], the λabs in series [1] worked out at 516 nm. Besides, the ε in series [1] (setting [4]) is reported as 17000 cm^-1M^-1. In addition, the ΦF in series [2] (setting [5]) was found to be 0.16. In series [3], the λem is listed as 603 nm.

On to `CCN(CC)c1ccc2c(/C=C/c3ccc(N(C)C)cc3)cc(=[N+]3CCCCC3)oc2c1.O=[N+]([O-])[O-]` [Compound 13, (E)-1-(7-(diethylamino)-4-(4-(dimethylamino)styryl)-2H-chromen-2ylidene)piperidin-1-ium nitrate], for which the λabs in series [1] turned out to be 485 nm. In addition, the ε in series [1] (setting [4]) was 39000 cm^-1M^-1; in series [1] (setting [6]), 39000 cm^-1m^-1. Besides, in series [3], the λem amounted to 608 nm.

In series [1], `CCN(CC)c1ccc2c(C)cc(=[N+]3CCCCC3)oc2c1.O=[N+]([O-])[O-]` [Compound 10, 1-(7-(diethylamino)-4-methyl-2H-chromen-2-ylidene)-piperidin-1-ium nitrate] showed a λabs of 437 nm. This compound showed a ε in series [1] (setting [6]) of 21000 cm^-1m^-1. For the same compound, in series [1] (compared with its precursor (1)), the bathochromic shift is reported as above 66 nm. In addition, the ΦF in series [2] (setting [5]) was determined as 0.14. In addition, the λem in series [3] turned out to be 490 nm.

As for `CCN(CC)c1ccc2c(c1)OC(=C(C#N)C#N)C=C2/C=C/c1ccc(OC)cc1` [Compound 7, (E)-2-(7-(diethylamino)-4-(4-methoxystyryl)-2H-chromen-2-ylidene)malononitrile], the λabs in series [1] was found to be 522 nm. The ε in series [1] (setting [4]) was 24000 cm^-1M^-1. Besides, the ΦF in series [2] (setting [5]) was determined as 0.20. This compound also gave a λem in series [3] of 602 nm.

With `CCN(CC)c1ccc2c(/C=C/c3ccc(OCCCCCC(=O)O)cc3)cc(=[N+]3CCCCC3)oc2c1.O=[N+]([O-])[O-]` [Compound 15, (E)-1-(4-(4-((5-carboxypentyl)oxy)styryl)-7-(diethylamino)-2H-chromen-2ylidene)piperidin-1-ium nitrate], the λabs in series [1] was 406 nm. In series [1] (setting [6]), this compound registered a ε of 30000 cm^-1m^-1. For the same compound, in series [2] (setting [5]), the ΦF was determined as 0.90. The compound also registered a λem in series [3] of 578 nm.

As for `CCN(CC)c1ccc2c(c1)OC(=C(C#N)C#N)C=C2/C=C/c1ccc(N(C)C)cc1` [Compound 6, (E)-2-(7-(diethylamino)-4-(4-(dimethylamine)styryl)-2H-chromen-2ylidene)malononitrile], the λabs in series [1] was found to be 496 nm. Moreover, the ε in series [1] (setting [4]) amounted to 34000 cm^-1M^-1. Besides, in series [1] (experimental absorption spectrum), the “visible shoulder (lowest energy S0 → S1 transition)” value is reported as “around 536 nm”. Moreover, in series [2], the ΦF is 0.95 and 0.98. The same compound returned a λem in series [3] of 597 nm.

In series [1], `CCN(CC)c1ccc2c(/C=C/c3ccccc3)cc(=[N+]3CCCCC3)oc2c1.O=[N+]([O-])[O-]` [Compound 12, (E)-1-(7-(diethylamino)-4-styryl-2H-chromen-2-ylidene)-piperidin-1-ium nitrate] registered a λabs of 467 nm. The ε in series [1] (setting [6]) is given as 17000 cm^-1m^-1. The same compound registered a ΦF in series [2] (setting [5]) of 0.34. This compound also registered a λem in series [3] of 525 nm.

In series [1], `CCN(CC)c1ccc2c(/C=C/c3ccc(OCCCCCC(=O)ON4C(=O)CCC4=O)cc3)cc(=[N+]3CCCCC3)oc2c1.O=[N+]([O-])[O-]` [Compound 16, (E)-1-(7-(diethylamino)-4-(4-((6-((2,5-dioxopyrrolidin-1-yl)oxy)-6oxohexyl)oxy)styryl)-2H-chromen-2-ylidene)piperidin-1-ium nitrate] displayed a λabs of 404 nm. In series [1] (setting [6]), this compound had a ε of 30000 cm^-1m^-1. This compound returned a ΦF in series [2] (setting [5]) of 0.92. The λem in series [3] is 577 nm.

Compound `CCN(CC)c1ccc2c(c1)OC(=C(C#N)C#N)C=C2/C=C/c1ccc(C(=O)OC)cc1` [Compound 4] gave a λabs in series [1] of 520 nm. Further, the ε in series [1] (setting [4]) was 19000 cm^-1M^-1. Besides, the ΦF in series [2] (setting [5]) was 0.04 and 0.08. The compound also displayed a λem in series [3] of 620 nm.

The values are drawn from patent publication EP4230701A1, “4-STYRYL COUMARINS DERIVATIVES AS FLUORESCENT LABELS FOR BIOMOLECULES” (Universidade de Évora, priority 2022, dated 2023).
